Measured values published in ChEMBL document CHEMBL4184208, “Theoretical research in structure characteristics of different inhibitors and differences of binding modes with CBP bromodomain” (Bioorg Med Chem, 2018).

Molecular target: CREB-binding protein/Histone acetyltransferase p300 (Homo sapiens, UniProt Q09472+Q92793)
Test: Inhibition of human His-FLAG tagged CBP/EP300 (1082 to 1197 residues) using H4-TetraAc-biotin peptide as substrate after 90 mins by AlphaLISA method
Assay type: protein assay

Row | IC50 | SMILES
1 | 0.47 µM | C[C@@H]1CC(=O)Nc2cccc(-c3cnn(C(C)(C)C)c3)c2N1
2 | 14 µM | C[C@@H]1CC(=O)Nc2ccccc2N1
